The values that follow come from US20060247261A1 (priority 2002, published 2006).

pEC50: −log10 of the molar value. Structures can show the parent of a compound that is named as a salt. Where two headings read alike, the source gives them in different places.

The assay addresses T1, human cannabinoid CB2 receptor (Homo sapiens, UniProt P34972).
T1 construct: expressed in transfected cells; host or cells: Saccharomyces cerevisiae strain MMY23 (expresses a chimeric Gpa1/human Galpha-i3 G-protein alpha subunit)
Nature of the assay: Cannabinoid CB2 receptor agonist activity, yeast reporter assay. The settings on record: for activity in the CB2 assay (in words): CB2 assay described herein; for Emax: read-out: efficacy (Emax) at the cloned human cannabinoid CB2 receptor. It is filed as cell-based. From the text: Yeast (Saccharomyces cerevisiae) cells expressing the human cannabinoid CB2 receptor were generated by integration of an expression cassette into the ura3 chromosomal locus of yeast strain MMY23. This cassette consisted of DNA sequence encoding the human CB2 receptor flanked by the yeast GPD promoter to the 5′ end of CB2 and a yeast transcriptional terminator sequence to the 3′ end of CB2. MMY23 expresses a yeast/mammalian chimeric G-protein alpha subunit in which the C-terminal 5 amino acids of Gpa1 are replaced with the C-terminal 5 amino acids of human Gαi3 (as described in Brown et al. (2000), Yeast 16:11-22).
Agonists were prepared as 10 mM stocks in DMSO. […] Agonist solutions in DMSO (1% final assay volume) were transferred into black, clear bottom, microtitre plates from NUNC (96- or 384-well). […] Fluorescence was plotted against compound concentration and iteratively curve fitted using a four parameter fit to generate a concentration effect value.

Setting [1] is: yeast (Saccharomyces cerevisiae) cells expressing human CB2, read-out: EC50 at the cloned human cannabinoid CB2 receptor.

T1 sequence (P34972 whole entry): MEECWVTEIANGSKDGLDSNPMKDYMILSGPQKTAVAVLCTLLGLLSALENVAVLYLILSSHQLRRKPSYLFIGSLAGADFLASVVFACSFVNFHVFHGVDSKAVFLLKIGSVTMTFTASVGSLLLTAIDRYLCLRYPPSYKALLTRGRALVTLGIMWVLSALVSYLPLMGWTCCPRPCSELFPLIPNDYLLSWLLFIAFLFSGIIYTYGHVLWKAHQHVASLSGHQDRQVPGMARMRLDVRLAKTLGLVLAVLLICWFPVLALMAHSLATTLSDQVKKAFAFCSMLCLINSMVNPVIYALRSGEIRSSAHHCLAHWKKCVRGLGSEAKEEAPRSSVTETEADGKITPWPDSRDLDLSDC

On to `O=C(NCc1ccccc1Br)c1cnc(Nc2cccc(Cl)c2)nc1C(F)(F)F` [2-(3-Chloro-phenylamino)-4-trifluoromethyl-pyrimidine-5-carboxylic acid 2-bromo-benzylamide], for which the “activity in the CB2 assay (in words)” value is “inactive”.
As for `COc1ccccc1CNC(=O)c1cnc(Nc2cccc(Cl)c2)nc1C(F)(F)F` [2-(3-Chloro-phenylamino)-4-trifluoromethyl-pyrimidine-5-carboxylic acid 2-methoxy-benzylamide], the “activity in the CB2 assay (in words)” value is “inactive”.
`CN(Cc1ccccc1)C(=O)c1cnc(Nc2ccc(C(C)(C)C)cc2)nc1C(F)(F)F` [2-(4-tert-butyl-phenylamino)-4-trifluoromethyl-pyrimidine-5-carboxylic acid benzyl-methyl-amide]: the “activity in the CB2 assay (in words)” value was “inactive”.
Turning to `CC(C)(C)c1ccc(Nc2ncc(C(=O)NCc3ccccc3)c(C(F)(F)F)n2)cc1` [2-(4-tert-butyl-phenylamino)-4-trifluoromethyl-pyrimidine-5-carboxylic acid benzylamide], the “activity in the CB2 assay (in words)” value is “inactive”.
With `O=C(NCc1ccccc1)c1cnc(Nc2cccc(Cl)c2)nc1C(F)(F)F` [Example 1, 2-(3-Chlorophenylamino)-4-trifluoromethylpyrimidine-5-carboxylic acid benzyl-amide], the pEC50 is 6.00 to 7.70 and the Emax is more than 50%.
For `O=C(NCc1ccncc1)c1cnc(Nc2cccc(Cl)c2)nc1C(F)(F)F` [Example 2, 2-(3-Chlorophenylamino)-4-trifluoromethylpyrimidine-5-carboxylic acid (pyrdin-4-ylmethyl)amide], in that order: 6.00 to 7.70 and more than 50%.
On the same counts, the results for `CN(Cc1ccccc1)C(=O)c1cnc(Nc2cccc(Cl)c2)nc1C(F)(F)F` [Example 3, 2-(3-Chlorophenylamino)-4-trifluoromethylpyrimidine-5-carboxylic acid N-benzyl-N-methylamide] are 6.00 to 7.70 and more than 50%.
Turning to `COc1ccc(CNC(=O)c2cnc(Nc3cccc(Cl)c3)nc2C(F)(F)F)cc1` [Example 4, 2-(3-Chlorophenylamino)-4-trifluoromethylpyrimidine-5-carboxylic acid 4-methoxybenzyl-amide], the pEC50 is 6.00 to 7.70 and the Emax was more than 50%.
Turning to `O=C(NCc1ccc(F)cc1)c1cnc(Nc2cccc(Cl)c2)nc1C(F)(F)F` [Example 5, 2-(3-Chlorophenylamino)-4-trifluoromethylpyrimidine-5-carboxylic acid 4 fluorobenzyl-amide], the pEC50 under setting [1] was 6.00 to 7.70.
On to `N#Cc1ccc(CNC(=O)c2cnc(Nc3cccc(Cl)c3)nc2C(F)(F)F)cc1` [Example 6, 2-(3-Chlorophenylamino)-4-trifluoromethylpyrimidine-5-carboxylic acid 4 cyanobenzyl-amide], for which the pEC50 is 6.00 to 7.70 and the Emax was more than 50%.
With `CN(Cc1ccccc1)C(=O)c1cnc(Nc2cccc(Cl)c2Cl)nc1C(F)(F)F` [Example 7, 2-(2,3-Dichlorophenylamino)-4-trifluoromethylpyrimidine-5-carboxylic acid N-benzyl-N-methylamide], the pEC50 is 6.00 to 7.70 and the Emax is more than 50%.
For `O=C(NCc1ccccc1)c1cnc(Nc2ccc(Cl)cc2Cl)nc1C(F)(F)F` [Example 8, 2-(2,4-Dichlorophenylamino)-4-trifluoromethyloyrimidine-5-carboxyllc acid benzyl-amide], in that order: 6.00 to 7.70 and more than 50%.
`O=C(NCc1ccccc1)c1cnc(Nc2ccc(Cl)c(Cl)c2)nc1C(F)(F)F` [Example 9, 2-(3,4-Dichlorophenylamino)-4-trifluoromethylpyrimidine-5-carboxylic acid benzyl-amide]: the pEC50 was 6.00 to 7.70 and the Emax is more than 50%.
On the same counts, the results for `CN(Cc1ccccc1)C(=O)c1cnc(Nc2c(Cl)cccc2Cl)nc1C(F)(F)F` [Example 10, 2-(2,6-Dichlorophenylamino)-4-trifluoromethylpyrimidine-5-carboxylic acid N-benzyl-N-methylamide] are 6.00 to 7.70 and more than 50%.
In the case of `O=C(NCc1ccccc1)c1cnc(Nc2cc(Cl)cc(Cl)c2)nc1C(F)(F)F` [Example 11, 2-(3,5-Dichlorophenylamino)trifluoromethylpyrimidine-5-carboxylic acid benzyl-amide], the pEC50 was 6.00 to 7.70 and the Emax was more than 50%.
For `O=C(NCc1ccccc1)c1cnc(Nc2cccc(F)c2)nc1C(F)(F)F` [Example 12, 2-(3-Fluorophenylamino)-4-trifluoromethylpyrimidine-5-carboxylic acid benzyl-amide], in that order: 6.00 to 7.70 and more than 50%.
For `O=C(NCc1ccccc1)c1cnc(Nc2cccc(Br)c2)nc1C(F)(F)F` [Example 13, 2-(3-Bromophenylamino)-4-trifluoromethylpyrimidine-5-carboxylic acid benzyl-amide], in that order: 6.00 to 7.70 and more than 50%.
As to `CN(Cc1ccccc1)C(=O)c1cnc(Nc2cccc(Br)c2)nc1C(F)(F)F` [Example 14, 2-(3-Bromophenylamino)-4-trifluoromethylpyrimidine-5-carboxylic acid N-benzyl-N-methylamide], the negative-log EC50 (pEC50) is 6.00 to 7.70 and the Emax is more than 50%.
With `COc1ccccc1Nc1ncc(C(=O)NCc2ccccc2)c(C(F)(F)F)n1` [Example 15, 2-(2-Methoxyphenylamino)-4-trifluoromethylpyrimidine-5-carboxylic acid benzyl-amide], the pEC50 is 6.00 to 7.70 and the Emax is more than 50%.
Consider `O=C(NCc1ccncc1)c1cnc(Nc2cccc(Cl)c2Cl)nc1C(F)(F)F` [Example 16], for which the pEC50 was 6.00 to 7.70 and the Emax was more than 50%.
For `O=C(NCc1ccncc1)c1cnc(Nc2ccc(Cl)cc2Cl)nc1C(F)(F)F` [Example 17, 2-(2,4-Dichlorophenylamino)-4-trifluoromethylpyrimidine-5-carboxylic acid (pyridin-4-ylmethyl)amide], in that order: 6.00 to 7.70 and more than 50%.
Turning to `O=C(NCc1ccncc1)c1cnc(Nc2ccc(Cl)c(Cl)c2)nc1C(F)(F)F` [Example 18], the pEC50 is 6.00 to 7.70 and the Emax was more than 50%.
On the same counts, the results for `O=C(NCc1ccncc1)c1cnc(Nc2cc(Cl)ccc2Cl)nc1C(F)(F)F` [Example 19, 2-(2,5-Dichlorophenylamino)trifluoromethylpyrimidine-5-carboxylic acid (pyridin-4-ylmethyl)amide] are 6.00 to 7.70 and more than 50%.
Consider `O=C(NCc1ccncc1)c1cnc(Nc2cccc(F)c2)nc1C(F)(F)F` [Example 20, 2-(3-Fluorophenylamino)-4-trifluoromethylpyrimidine-5-carboxylic acid (pyridin-4-ylmethyl)amide], for which the pEC50 is 6.00 to 7.70 and the Emax is more than 50%.
In the case of `O=C(NCc1ccncc1)c1cnc(Nc2cccc(Br)c2)nc1C(F)(F)F` [Example 21, 2-(3-Bromophenylamino)-4-trifluoromethylpyrimidine-5-carboxylic acid (pyridin-4-ylmethyl)amide], the pEC50 is 6.00 to 7.70 and the maximum response (Emax) is more than 50%.
On to `O=C(NCc1ccncc1)c1cnc(Nc2cc(Cl)cc(Cl)c2)nc1C(F)(F)F` [Example 22, 2-(3,5-Dichlorophenylamino)-4-trifluoromethylpyrimidine-5-carboxylic acid (pyridin-4-ylmethyl)amide], for which the pEC50 was 6.00 to 7.70 and the Emax was more than 50%.
On the same counts, the results for `O=C(NCc1ccc(F)cc1)c1cnc(Nc2cccc(F)c2)nc1C(F)(F)F` [Example 23, 2-(3-Fluorophenylamino)-4-trifluoromethylpyrimidine-5-carboxylic acid 4-fluorobenzyl-amide] are 6.00 to 7.70 and more than 50%.
`O=C(NCc1ccc(F)cc1)c1cnc(Nc2cccc(Br)c2)nc1C(F)(F)F` [Example 24]: the negative-log EC50 (pEC50) under setting [1] was 6.00 to 7.70.
`O=C(NCc1ccc(F)cc1)c1cnc(Nc2cc(Cl)cc(Cl)c2)nc1C(F)(F)F` [Example 25, 2-(3,5-Dichlorophenylamino)trifluoromethylpyrimidine-5-carboxylic acid 4-fluorobenzyl-amide]: the pEC50 was 6.00 to 7.70 and the Emax is more than 50%.
On the same counts, the results for `N#Cc1ccc(CNC(=O)c2cnc(Nc3cc(Cl)cc(Cl)c3)nc2C(F)(F)F)cc1` [Example 26, 2-(3,5-Dichlorophenylamino)-4-trifluoromethylpyrimidine-5-carboxylic acid 4-cyanobenzylamide] are 6.00 to 7.70 and more than 50%.
For `N#Cc1ccc(Nc2ncc(C(=O)NCc3ccccc3)c(C(F)(F)F)n2)cc1` [Example 27, 2-(4-Cyano-phenylamino)-4-trifluoromethyl-pyrimidine-5-carboxylic acid benzylamide], in that order: 6.00 to 7.70 and more than 50%.
`Cc1cc(CNC(=O)c2cnc(Nc3cccc(Cl)c3)nc2C(F)(F)F)ccn1` [Example 28, 2-(3-Chloro-phenylamino)-4-trifluoromethyl-pyrimidine-5-carboxylic acid (2-methyl-pyridin-4-ylmethyl)-amide hydrochloride]: the pEC50 is 6.00 to 7.70 and the Emax was more than 50%.
